The values below come from publication PMC12057046, “Elucidation of short linear motif-based interactions of the MIT and rhodanese domains of the ubiquitin-specific protease 8” (Biology Direct, 2025).

The target of one assay is T1, USP8 Rhod domain (Homo sapiens, UniProt P40818).
T1 construct: USP8 Rhod (174–317) (UniProt: P40818); GST (cleaved yes); made in house; host or cells: Escherichia coli BL21-Gold (DE3)
T1 sequence (P40818 174-317): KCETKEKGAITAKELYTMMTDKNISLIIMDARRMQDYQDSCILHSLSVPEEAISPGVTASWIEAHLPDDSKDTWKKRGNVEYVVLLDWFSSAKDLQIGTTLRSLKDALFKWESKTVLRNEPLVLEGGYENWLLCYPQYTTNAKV
Nature of the assay: Peptide-phage display-based deep mutational scanning (DMS), USP8 Rhod domain. In kind it is binding. Particulars: PSSM, library USP8_DMS, days 2,3; position 7.
Take “KIAA1614_Q5VZ46_569_584 G7K (MERVLGKLSSPLRLLP; peptide 569-584; UniProt Q5VZ46 569-584, looked up, variant G7K)”: the “enrichment_relative_to_wt at position 7 (wt G)” value is -96 and the “proportion of amino acid at position 7 (wt G)” value was 0.000161.
The corresponding values for “KIAA1614_Q5VZ46_569_584 G7S (MERVLGSLSSPLRLLP; UniProt Q5VZ46 569-584, looked up, variant G7S)” are -1.8 and 0.0086.
In the same order, the values of “KIAA1614_Q5VZ46_569_584 G7A (MERVLGALSSPLRLLP; UniProt Q5VZ46 569-584, looked up, variant G7A)” are 1.68 and 0.0259.
In the same order, the values of “KIAA1614_Q5VZ46_569_584 G7W (MERVLGWLSSPLRLLP; UniProt Q5VZ46 569-584, looked up, variant G7W)” are -172 and 8.98e-5.

The same assay, now with this note: PSSM, library USP8_DMS, days 2,3; position 10.
As to “KIAA1614_Q5VZ46_569_584 S10I (MERVLGGLSIPLRLLP; UniProt Q5VZ46 569-584, looked up, variant S10I)”, the “enrichment_relative_to_wt at position 10 (wt S)” value is -231 and the “proportion of amino acid at position 10 (wt S)” value came to 0.00245.
For the substance “KIAA1614_Q5VZ46_569_584 S10H (MERVLGGLSHPLRLLP; UniProt Q5VZ46 569-584, looked up, variant S10H)”, the “enrichment_relative_to_wt at position 10 (wt S)” value is on record as -1.37 and the “proportion of amino acid at position 10 (wt S)” value was determined as 0.41.

Staying with this assay, now noted: PSSM, library USP8_DMS, days 2,3; position 15.
Turning to “KIAA1614_Q5VZ46_569_584 L15V (MERVLGGLSSPLRLVP; UniProt Q5VZ46 569-584, looked up, variant L15V)”, the “enrichment_relative_to_wt at position 15 (wt L)” value is -151 and the “proportion of amino acid at position 15 (wt L)” value came to 0.00642.

The same assay, now with this note: ProP-PD DMS, bait USP8_Rhodanese__P40818_174_317; pair wild-type GMERVLGGLSSPLRLL (wt_00013) vs mutant; positive where wild-type fraction is higher, negative where mutant fraction is higher.
For the substance GMERVLGGLSSPLRNL, the hit_pair_ratio was 160.99.
As for GMERVLGGLSFPLRLL, the hit_pair_ratio worked out at 80.49.
In turn, GMERVLGGLSSLLRLL came in with a hit_pair_ratio of 321.97.
On the same count and under the same terms, then GMERVLGGLSSQLRLL, with 321.97.
The same measure, in the same setting: the value for GMERVLGGLSSPERLL was 4.36.
The substance GMERVLGGLSSPLGLL had a hit_pair_ratio of 107.32.
The same measure, in the same setting: the value for GMERVLGGLSSPPRLL was 160.99; that for GMERVLGGLSSPLRLH was 8.26; that for GMERVLGGLSSPLELL was 107.32.
As to GMERVLGGLSSPLRLQ, the hit_pair_ratio is recorded as 26.83.
In turn, GMERVLGGLSRPLRLL displayed a hit_pair_ratio of 321.97.
As for GMERVLGGLSSPLYLL, the hit_pair_ratio was 5.39.
For GMERVLGGWSSPLRLL, the hit_pair_ratio is given as 10.09.
Still for that read-out and setting: the value for GMERVLGGLSSPMRLL was 7.90; that for GMERVLGGLSSPLQLL was 59.13.
GMERVLGGLSVPLRLL gave a hit_pair_ratio of 93.45.

Staying with this assay, now noted: ProP-PD pairs, bait USP8_Rhodanese__P40818_174_317; wild-type/mutant pair, wild type KIAA1614 569-584 GMERVLGGLSSPLRLL (wt_00013).
On to GMERVNGGLSSPLRLL, for which the hit_pair_ratio was found to be 321.97.
The same measure, in the same setting: the value for GMERVLAGLSSPLRLL was -1.35; that for GTERVLGGLSSPLRLL was -5.86; that for GKERVLGGLSSPLRLL was -1.45.
The substance GMERELGGLSSPLRLL showed a hit_pair_ratio of -10.69.
For GMERVLMGLSSPLRLL, the hit_pair_ratio is -3.47.
The same measure, in the same setting: the value for GQERVLGGLSSPLRLL was -1.16.
The same measure, in the same setting: the value for GMERNLGGLSSPLRLL was -2.85.
As for GMSRVLGGLSSPLRLL, the hit_pair_ratio was 9.14.
On the same count and under the same terms, the value for GMEAVLGGLSSPLRLL was 131.67.
On the same count and under the same terms, then GMERVLEGLSSPLRLL, with -2.19; and GMERMLGGLSSPLRLL, with -1.32.
Same read-out and setting: then GMERLLGGLSSPLRLL, with 5.91; and NMERVLGGLSSPLRLL, with 1.70.
With MMERVLGGLSSPLRLL, the hit_pair_ratio is reported as 6.27.
Still for that read-out and setting: then GMVRVLGGLSSPLRLL, with 160.99.
Regarding GNERVLGGLSSPLRLL, the hit_pair_ratio was -3.41.
The same measure, in the same setting: the value for GHERVLGGLSSPLRLL was -7.73.

The same assay, now with this note: bait USP8_Rhodanese__P40818_174_317; wild-type/mutant pair ratio of averaged fractions; negative values where mutant fraction is higher.
For GLALWEAKMKQLAIRA, the hit_pair_ratio is given as 1107.01.
Same read-out and setting: then GLALWEAKMKQLMERA, with 81.38; and GLALWEAKMKQLAERH, with 208.81; and GLALWEAKMKQLDERA, with 184.50.
In the case of GLALWEAKMKQLTERA, the hit_pair_ratio is given as 133.35.
On the same count and under the same terms, then GLALWEAKMKQLAEWA, with 38.36; and GLALWEAKMKQLQERA, with 2.19.
On to GLALWEAKMKQLADRA, for which the hit_pair_ratio was 175.67.
On the same count and under the same terms, the value for GLALWEAKMKQLAMRA was 7.80.
Still for that read-out and setting: the value for GLALWEAKMKQLAERY was 303.23.
On the same count and under the same terms, then GLALWEAKMKLLAERA, with -2.26; and GLALWEAKMKFLAERA, with 1107.01.
Regarding GLALWEAKMWQLAERA, the hit_pair_ratio was 2.24.
Take GLALWEAKMKRLAERA: the hit_pair_ratio stood at 29.55.
Still for that read-out and setting: the value for GLALWEAKMKQKAERA was 1107.01; that for GLALWEAKMEQLAERA was -4.35.
Same read-out and setting: then GLALWEAKMKQAAERA, with 417.62; and GLALWEAKMKQLYERA, with 195.90.
In the case of GLALWEAKMKWLAERA, the hit_pair_ratio came to 221.40.

The same assay, now with this note: wild type/mutant pair; bait USP8_Rhodanese__P40818_174_317; vs hit_library_peptide_wt GLALWEAKMKQLAERA; negative where mutant fraction exceeds wild type; ProP-PD pairs (sheet S7.B).
As to KLALWEAKMKQLAERA, the hit_pair_ratio amounted to 238.03.
With GLALWEQKMKQLAERA, the hit_pair_ratio is -1.30.
The same measure, in the same setting: the value for GLALWEAKLKQLAERA was 1107.01; that for GLALWHAKMKQLAERA was 123.00; that for GPALWEAKMKQLAERA was 1107.01.
The same measure, in the same setting: the value for GLYLWEAKMKQLAERA was 27.03.
The same measure, in the same setting: the value for GLALWEAKWKQLAERA was 2.15; that for GLALWEAPMKQLAERA was 276.75.
GRALWEAKMKQLAERA registered a hit_pair_ratio of 1107.01.
The substance GLAIWEAKMKQLAERA showed a hit_pair_ratio of -44.11.
Consider GKALWEAKMKQLAERA, for which the hit_pair_ratio was found to be 369.00.
Same read-out and setting: the value for GLALWEPKMKQLAERA was 87.84.
Same read-out and setting: then GTALWEAKMKQLAERA, with 1107.01; and GLALWEHKMKQLAERA, with 2.05.
Still for that read-out and setting: the value for GLAKWEAKMKQLAERA was 1107.01; that for GLALWETKMKQLAERA was 11.88; that for GLILWEAKMKQLAERA was 1107.01.
For the substance GLALWESKMKQLAERA, the hit_pair_ratio was 208.81.
Substance GLALWEFKMKQLAERA registered a hit_pair_ratio of 1107.01.
On the same count and under the same terms, the value for GLALWEAQMKQLAERA was 1107.01; that for GLALVEAKMKQLAERA was 1107.01.
As to GLAVWEAKMKQLAERA, the hit_pair_ratio is recorded as -2.03.
Still for that read-out and setting: then GLALWEAKYKQLAERA, with 123.00.
Same read-out and setting: then GLALWEAKHKQLAERA, with 127.97; and GMALWEAKMKQLAERA, with 7.96.
